Source: patent US20080014288A1, “Zinc-containing treatments for hyperphosphatemia” (priority 2004, published 2008)
Entries after “also recorded” stand apart in the source; their conditions may differ.

Test system: house male Sprague Dawley (SD) rats
Experiment: In vivo urinary phosphate excretion in rats fed test substance mixed in Purina 5002 diet
Set-up: species or system rat
Settings: for % Urinary Phosphate Relative to that of Control Animals / Phosphate Excretion: Table 1; for Phosphate Excretion: urine collected on days 5 and 6; for amounts of urinary phosphate compared with control (in words): rats on zinc therapy vs control which did not go through the zinc therapy
Method: House male Sprague Dawley (SD) rats were used for the experiments.
To establish baseline phosphorus excretion, the rats were placed in metabolic cages for 48 hours. Their urine was collected and its phosphorus content analyzed with a Hitachi analyzer to determine phosphorus excretion in mg/day. Any rats with outlying values were excluded; and the remainder of the rats was distributed into groups.
Cellulose at 0.5% by weight was used as a negative control. For each rat, 200 g of diet was prepared.
Each rat was weighed and placed on the standard diet. After 4 days the standard diet was replaced with the treatment diet (or control diet for the control group). On days 5 and 6, urine samples from the rats at 24 hours (±30 minutes) were collected and analyzed. The test rats were again weighed, and any weight loss or gain was calculated. Any remaining food was also weighed to calculate the amount of food consumed per day. A change in phosphorus excretion relative to baseline and cellulose negative control was calculated using Excel program.
A change in phosphorus excretion relative to baseline and cellulose negative control was calculated using Excel program.

[1] = 0.5% of diet by weight in Purina 5002, cellulose 0.5% negative control
[2] = 0.5% of diet by weight in Purina 5002

SMILES	% Urinary Phosphate Relative to that of Control Animals [1] [%]	Phosphate Excretion [2] [mg/day]	amounts of urinary phosphate compared with control (in words)	amounts of urinary phosphate compared with control (in words) (listed as zinc acetate dihydrate)	amounts of urinary phosphate compared with control (in words) (citrate dihydrate)	amounts of urinary phosphate compared with control (in words) (monohydrate)	% Urinary Phosphate Relative to that of Control Animals (0.25% of diet by weight in Purina 5002, cellulose negative control) [%]	Phosphate Excretion (0.25% of diet by weight in Purina 5002) [mg/day]
O=C[O-].O=C[O-].[Zn+2] [Zinc Formate]	48.5	10.1	much lower	–	–	–	–	–
O=C([O-])C(=O)[O-].[Zn+2] [Zinc Oxalate]	78.0	16.2	much lower	–	–	–	–	–
CC(=O)[O-].CC(=O)[O-].O.O.[Zn+2] [Zinc acetate dehydrate]	56.7	9.4	much lower	substantially reduce	–	–	–	–
[Cl-].[Cl-].[Zn+2] [Zinc chloride]	50.6	8.8	much lower; also recorded: substantially reduce	–	–	–	–	–
O.O.O=C([O-])CC(O)(CC(=O)[O-])C(=O)[O-].O=C([O-])CC(O)(CC(=O)[O-])C(=O)[O-].[Zn+2].[Zn+2].[Zn+2] [Zinc citrate dihydrate]	70.8	12	–	–	much lower; also recorded: substantially reduce	–	–	–
NCC(=O)[O-].NCC(=O)[O-].O.[Zn+2] [Zinc glycinate monohydrate]	79.7	15.5	–	–	–	much lower; also recorded: substantially reduce	–	–
[O]=[Zn] [Zinc oxide]	18.4	3.2	much lower; also recorded: substantially reduce	–	–	–	–	–
[O-2].[Zn+2] [zinc oxide, nanopowder, zinc oxide]	–	–	–	–	–	–	50.7	9.7
